Measurements taken from US12187742B2 (XRAD Therapeutics, Inc., priority 2018, dated 2025).
Where a name gives a salt, the structure may show the parent alone.

Columns and labels:
DNA-PK = DNA-PK (Homo sapiens (Human), UniProt P78527); assay: DNA-PK Enzyme-Linked Immunosorbent Assay (phosphorylation of GST-p53 (1-101) peptide); format: biochemical; details: ELISA
Procedure: Assay of Compounds ATM and DNA-PK Inhibition
remove wash solution, turn plate upside down onto a thin paper towel and centrifuge at 1000 rpm for 1 min to absorb all wash buffer. Clean the bottom of plate with moist lint free paper. Scan plate immediately using ODYSSEY CLx (LI-COR) for the best results. DNA-PK Enzyme-Linked Immunosorbent Assay:
On day one, coat 96-well plate (ThermoFisher. Cat #: 442404) with GST-p53 (1-101) peptide (purified by Pharmaron, BCS department) by diluting 3 μg of GST-p53 each well with 0.1 M Na2CO3/NaHCO3, pH 9.6. Incubate the plate overnight at 4° C. The second day, remove coating buffer, wash 2× with PBST (1×PBS containing 0.1% Tween-20). Then add DNA-PK enzyme solution (Invitrogen, #PR9107A; the final DNA-PK concentration is 0.1 μg/mL), series dilution compounds (the final top concentration is 100 nM, 3 fold series dilution, with total 10 doses) and ATP solution (the final ATP concentration is 20 μM) to the 96-well plate. Incubate the plate at 25° C. for 1 hour. Then wash 3× with PBST (1×PBS containing 0.1% Tween-20). Block the plate with PBST+ 1% BSA at 4° C. overnight. The third day, wash 4× with PBST (1×PBS containing 0.1% Tween-20). Then add Phospho-p53 primary antibody (cell signaling Technology, #9286, Phospho-p53 (Ser15) (16G8) Mouse mAb) (1/1000) to each well. Seal with plate and incubate the plate for 1 h at 37° C. Wash 4× with PBST (1×PBS containing 0.1% Tween-20), add 100 μL of HRP-linked secondary antibody (Cell signaling Technology, #7076, Anti-mouse IgG, HRP-linked Antibody) (1/1000) to each well. Seal with tape and incubate the plate for 30 min at 37° C. Wash 4× with PBST (1×PBS containing 0.1% Tween-20), add 100 μL of TMB (Cell signaling Technology, #7004) substrate to each well. Seal with tape and incubate the plate for 10 min at 37° C. Then add 100 μL of Stop solution (Cell signaling Technology, #7002) to each well. Read the plate at 450 nm to detect absorption.

ATM = ATM (Homo sapiens (Human), UniProt Q13315); assay: ATM in Cell Western Assay (pKAP1 in etoposide-treated MCF-7 cells); format: cell-based
Outline: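 Cells received compounds in a 10-dose, 3-fold series from a 1 μM final top concentration, then 100 μM etoposide, for 1 hr at 37° C. They were then fixed with paraformaldehyde and permeabilized with 0.1% Triton X-100. After immunostaining, plates were scanned on an infrared imager.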

[1] = MCF-7 cells, etoposide 100 μM, 1 hr, pKAP1 readout
[2] = pKAP1 in etoposide-treated MCF-7 cells

Sequence of ATM (Q13315 whole entry): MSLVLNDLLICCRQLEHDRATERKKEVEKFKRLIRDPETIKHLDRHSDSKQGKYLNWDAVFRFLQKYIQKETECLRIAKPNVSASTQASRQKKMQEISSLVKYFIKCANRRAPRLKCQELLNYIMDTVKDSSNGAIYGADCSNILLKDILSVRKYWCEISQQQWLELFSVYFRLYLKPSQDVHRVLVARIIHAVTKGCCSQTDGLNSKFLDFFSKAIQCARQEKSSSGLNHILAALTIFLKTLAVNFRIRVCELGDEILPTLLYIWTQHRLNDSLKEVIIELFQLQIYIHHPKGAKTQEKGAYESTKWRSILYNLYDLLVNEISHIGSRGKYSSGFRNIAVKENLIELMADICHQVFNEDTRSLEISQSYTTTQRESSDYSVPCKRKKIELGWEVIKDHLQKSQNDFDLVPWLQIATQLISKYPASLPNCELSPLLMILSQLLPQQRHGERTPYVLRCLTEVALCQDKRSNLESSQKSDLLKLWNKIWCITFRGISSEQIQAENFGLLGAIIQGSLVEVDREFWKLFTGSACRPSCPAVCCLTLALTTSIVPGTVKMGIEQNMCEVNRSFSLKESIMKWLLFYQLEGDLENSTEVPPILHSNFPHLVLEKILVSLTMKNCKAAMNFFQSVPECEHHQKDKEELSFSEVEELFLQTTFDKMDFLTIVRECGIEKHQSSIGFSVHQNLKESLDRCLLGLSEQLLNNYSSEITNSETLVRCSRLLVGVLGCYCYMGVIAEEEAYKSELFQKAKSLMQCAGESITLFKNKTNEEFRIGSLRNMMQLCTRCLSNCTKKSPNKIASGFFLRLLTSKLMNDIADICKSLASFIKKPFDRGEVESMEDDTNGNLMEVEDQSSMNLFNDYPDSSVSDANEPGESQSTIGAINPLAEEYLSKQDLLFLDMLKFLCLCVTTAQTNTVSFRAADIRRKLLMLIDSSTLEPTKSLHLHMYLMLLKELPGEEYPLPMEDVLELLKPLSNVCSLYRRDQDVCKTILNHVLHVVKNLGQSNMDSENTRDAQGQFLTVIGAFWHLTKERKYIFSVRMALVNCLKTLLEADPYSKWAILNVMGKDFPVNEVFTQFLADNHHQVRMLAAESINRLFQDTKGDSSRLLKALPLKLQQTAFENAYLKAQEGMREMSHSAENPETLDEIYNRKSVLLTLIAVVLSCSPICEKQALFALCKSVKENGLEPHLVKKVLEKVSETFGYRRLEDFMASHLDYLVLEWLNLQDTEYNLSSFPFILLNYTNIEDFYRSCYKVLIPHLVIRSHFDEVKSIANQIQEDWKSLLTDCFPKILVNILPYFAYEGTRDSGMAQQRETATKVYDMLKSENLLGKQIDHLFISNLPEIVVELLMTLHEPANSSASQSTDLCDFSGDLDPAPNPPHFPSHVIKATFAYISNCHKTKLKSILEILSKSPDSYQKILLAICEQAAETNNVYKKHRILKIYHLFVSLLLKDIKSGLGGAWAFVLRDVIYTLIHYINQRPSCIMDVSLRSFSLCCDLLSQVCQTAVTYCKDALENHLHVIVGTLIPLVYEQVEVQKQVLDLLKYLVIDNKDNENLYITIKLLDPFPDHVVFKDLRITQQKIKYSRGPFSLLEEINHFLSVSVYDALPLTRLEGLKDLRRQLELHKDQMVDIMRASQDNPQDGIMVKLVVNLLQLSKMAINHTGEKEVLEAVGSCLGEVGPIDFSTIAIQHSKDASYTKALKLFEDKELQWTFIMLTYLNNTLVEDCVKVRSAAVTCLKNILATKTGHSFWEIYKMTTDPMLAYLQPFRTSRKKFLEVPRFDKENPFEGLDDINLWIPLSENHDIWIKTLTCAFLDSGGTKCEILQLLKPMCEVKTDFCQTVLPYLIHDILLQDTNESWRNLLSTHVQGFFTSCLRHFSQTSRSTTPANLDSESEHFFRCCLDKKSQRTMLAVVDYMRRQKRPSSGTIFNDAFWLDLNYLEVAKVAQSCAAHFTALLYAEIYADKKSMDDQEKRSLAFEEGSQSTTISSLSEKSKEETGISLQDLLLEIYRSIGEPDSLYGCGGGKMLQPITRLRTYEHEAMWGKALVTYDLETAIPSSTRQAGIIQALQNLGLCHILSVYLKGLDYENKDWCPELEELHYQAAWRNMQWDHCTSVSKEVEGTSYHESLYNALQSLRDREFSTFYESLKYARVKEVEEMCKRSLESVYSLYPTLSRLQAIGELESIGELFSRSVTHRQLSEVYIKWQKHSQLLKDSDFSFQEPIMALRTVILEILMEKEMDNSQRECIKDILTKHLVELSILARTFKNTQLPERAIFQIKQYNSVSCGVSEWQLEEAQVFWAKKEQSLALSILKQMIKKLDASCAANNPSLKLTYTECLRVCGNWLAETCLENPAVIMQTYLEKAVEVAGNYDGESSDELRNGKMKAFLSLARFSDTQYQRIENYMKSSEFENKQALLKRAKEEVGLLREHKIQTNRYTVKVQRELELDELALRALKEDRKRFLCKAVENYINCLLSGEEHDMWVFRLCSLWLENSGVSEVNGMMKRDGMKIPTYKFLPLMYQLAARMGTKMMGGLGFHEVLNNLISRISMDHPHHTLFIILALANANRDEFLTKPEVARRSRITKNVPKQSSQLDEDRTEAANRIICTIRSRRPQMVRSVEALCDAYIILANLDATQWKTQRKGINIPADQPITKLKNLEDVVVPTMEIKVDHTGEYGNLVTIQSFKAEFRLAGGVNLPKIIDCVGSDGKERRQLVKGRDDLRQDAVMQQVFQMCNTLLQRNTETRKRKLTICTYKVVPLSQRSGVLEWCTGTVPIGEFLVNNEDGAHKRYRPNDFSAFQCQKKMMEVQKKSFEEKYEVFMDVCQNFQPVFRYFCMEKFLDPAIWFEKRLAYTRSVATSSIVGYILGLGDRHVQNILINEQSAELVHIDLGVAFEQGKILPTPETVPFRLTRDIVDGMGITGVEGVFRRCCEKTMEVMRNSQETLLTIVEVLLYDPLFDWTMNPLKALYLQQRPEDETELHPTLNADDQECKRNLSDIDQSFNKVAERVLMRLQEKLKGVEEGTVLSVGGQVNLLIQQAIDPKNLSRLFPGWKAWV

IC50 (DNA-PK; ATP 20 μM) | IC50 (ATM; [1]) | IC50 (DNA-PK; 20 μM ATP) | IC50 (ATM; [2]) | SMILES
0.5 to 1 nM | 1 to 100 nM | – | – | CN1C(=O)C2(CCC2)c2c1cnc1ccc(-c3cnc(OCCCN4CCCC4)c(NS(=O)(=O)c4ccccc4)c3)cc21 [Example 232, N-(5-(3′-Methyl-2′-oxo-2′,3′-dihydrospiro[cyclobutane-1,1′-pyrrolo[2,3-c]quinolin]-8′-yl)-2-(3-(pyrrolidin-1-yl)propoxy)pyridin-3-yl)benzenesulfonamide]
< 0.5 nM | 1 to 100 nM | – | – | CN(C)CCCOc1ncc(-c2ccc3ncc4c(c3c2)C2(CC2)C(=O)N4C)cc1NS(=O)(=O)c1ccc(OC(F)(F)F)cc1 [Example 121, N-(2-(3-(Dimethylamino)propoxy)-5-(3′-methyl-2′-oxo-2′,3′-dihydrospiro[cyclopropane-1,1′-pyrrolo[2,3-c]quinolin]-8′-yl)pyridin-3-yl)-4-(trifluoromethoxy)benzenesulfonamide]
– | – | < 0.5 nM | 1 to 100 nM | CC(C)NCCOc1ncc(-c2cc3c(cc2F)ncc2c3[C@]3(C[C@H](COc4ccccc4)C3)C(=O)N2C)cc1NS(C)(=O)=O [Example 409, cis-N-(5-(7′-Fluoro-3′-methyl-2′-oxo-3-(phenoxymethyl)-2′,3′-dihydrospiro[cyclobutane-1,1′-pyrrolo[2,3-c]quinolin]-8′-yl)-2-(2-(isopropylamino)ethoxy)pyridin-3-yl)methanesulfonamide]
– | – | < 0.5 nM | 1 to 100 nM | CC(C)NCCOc1ncc(-c2cc3c(cc2F)ncc2c3[C@]3(C[C@H](N(C)c4ccccc4)C3)C(=O)N2C)cc1NS(C)(=O)=O [Example 463, cis-N-(5-(7′-Fluoro-3′-methyl-3-(methyl(phenyl)amino)-2′-oxo-2′,3′-dihydrospiro[cyclobutane-1,1′-pyrrolo[2,3-c]quinolin]-8′-yl)-2-(2-(isopropylamino)ethoxy)pyridin-3-yl)methanesulfonamide]
– | – | 1 to 100 nM | 1 to 100 nM | CC(C)NCCOc1ncc(-c2cc3c(cc2F)ncc2c3[C@]3(C[C@H](C)C3)C(=O)N2C)cc1NS(C)(=O)=O [Example 448, cis-N-(5-(7′-Fluoro-3,3′-dimethyl-2′-oxo-2′,3′-dihydrospiro[cyclobutane-1,1′-pyrrolo[2,3-c]quinolin]-8′-yl)-2-(2-(isopropylamino)ethoxy)pyridin-3-yl)methanesulfonamide]
– | – | – | > 100 nM | CN1C(=O)C2(CCC2)c2c1cnc1cc(F)c(-c3cnc(N4CC(CN5CCOCC5)C4)c(NS(C)(=O)=O)c3)cc21 [Example 344, N-(5-(7′-Fluoro-3′-methyl-2′-oxo-2′,3′-dihydrospiro[cyclobutane-1,1′-pyrrolo[2,3-c]quinolin]-8′-yl)-2-(3-(morpholinomethyl)azetidin-1-yl)pyridin-3-yl)methanesulfonamideformate]
– | – | – | 1 to 100 nM | CC(C)NCCOc1ncc(-c2cc3c4c(cnc3cc2F)N(C)C(=O)C42CN(c3cccc(C(F)(F)F)c3)C2)cc1NS(C)(=O)=O [Example 537, N-(5-(7′-Fluoro-3′-methyl-2′-oxo-1-(3-(trifluoromethyl)phenyl)-2′,3′-dihydrospiro[azetidine-3,1′-pyrrolo[2,3-c]quinolin]-8′-yl)-2-(2-(isopropylamino)ethoxy)pyridin-3-yl)methanesulfonamide]
– | > 100 nM | – | – | COc1ccc2cc(-c3ccc4ncc5c(c4c3)C3(CC3)C(=O)N5C)ccc2n1 [Example 44, 8′-(2-Methoxyquinolin-6-yl)-3′-methylspiro [cyclopropane-1,1′-pyrrolo[2,3-c]quinolin]-2′(3′-H)-one]

SMILES | IC50 (DNA-PK; ATP 20 μM) | IC50 (ATM; [1]) | IC50 (DNA-PK; 20 μM ATP) | IC50 (ATM; [2])
CN(C)CCCOc1ncc(-c2ccc3ncc4c(c3c2)C2(CCC2)C(=O)N4C)cc1NS(=O)(=O)c1ccc(OC(F)(F)F)cc1 [Example 143, N-(2-(3-(Dimethylamino)propoxy)-5-(3′-methyl-2′-oxo-2′,3′-dihydrospiro[cyclobulane-1,1′-pyrrolo[2,3-c]quinolin]-8′-yl)pyridin-3-yl)-4-(trifluoromethoxy)benzenesulfonamide hydrochloride] | – | 1 to 100 nM | – | –
